22 compounds from BindingDB's records for doi:10.1016/s0960-894x(02)00300-1 (University of Illinois At Chicago, 2002) can be followed below.

Each structure is given as a SMILES string.

The test deals with T1, Dimer of Gag-Pol polyprotein [501-599,Q508K,L534I,L564I,C568A,C596A] (Human immunodeficiency virus 1, UniProt P03367, C568A/C596A/L534I/L564I/Q508K).
T1 construct: 501-599
Briefly: Protease Inhibition Assay. The settings on record: pH 6.4; 25 °C. Here is the method:
The Ki values were determined using fluorogenic substrate, 2-(aminobenzoyl)-Thr-Ile-Nle-Phe(p-NO2)-Gln-ArgNH2. A standard curve relating changes in fluorescent intensity to changes in concentration of product was used to convert fluorescent changes into molar velocities. The amount of cleavage was determined by HPLC.
Take `CC1CCCCCCCCCCCOC(=O)N1C[C@@H](O)[C@H](Cc1ccccc1)NC(=O)O[C@H]1CO[C@H]2OCC[C@H]21` (stereo partly drawn) [(3R,3aS,6aR)-hexahydrofuro[2,3-b]furan-3-yl N-[(2S,3R)-3-hydroxy-4-(4-methyl-2-oxo-1-oxa-3-azacyclopentadecan-3-yl)-1-phenylbutan-2-yl]carbamate]: the inhibitory constant (Ki) worked out at 30 nM.

Compound `C=CCCCCCCCCN(C[C@@H](O)[C@H](Cc1ccccc1)NC(=O)O[C@H]1CO[C@H]2OCC[C@H]21)C(=O)OCCC=C` [but-3-en-1-yl N-[(2R,3S)-3-({[(3R,3aS,6aR)-hexahydrofuro[2,3-b]furan-3-yloxy]carbonyl}amino)-2-hydroxy-4-phenylbutyl]-N-(dec-9-en-1-yl)carbamate] came in with a Ki of over 1000 nM.

For `O=C(N[C@@H](Cc1ccccc1)[C@H](O)CN1CCCCCCCCC=CCC(c2ccccc2)OC1=O)O[C@H]1CO[C@H]2OCC[C@H]21` (stereo partly drawn) [(3R,3aS,6aR)-hexahydrofuro[2,3-b]furan-3-yl N-[(2S,3R)-3-hydroxy-4-(2-oxo-15-phenyl-1-oxa-3-azacyclopentadec-12-en-3-yl)-1-phenylbutan-2-yl]carbamate], the Ki came out at 167 nM. Next, `O=C(N[C@@H](Cc1ccccc1)[C@H](O)CN1C/C=C\CCCCCCCCOC1=O)O[C@H]1CO[C@H]2OCC[C@H]21` [(3R,3aS,6aR)-hexahydrofuro[2,3-b]furan-3-yl N-[(2S,3R)-3-hydroxy-4-[(5Z)-2-oxo-1-oxa-3-azacyclotetradec-5-en-3-yl]-1-phenylbutan-2-yl]carbamate]: 125 nM; `C=CCCCCCCC(OC(=O)N(CCCCC=C)C[C@@H](O)[C@H](Cc1ccccc1)NC(=O)O[C@H]1CO[C@H]2OCC[C@H]21)c1ccccc1` (stereo partly drawn) [(3R,3aS,6aR)-hexahydrofuro[2,3-b]furan-3-yl N-[(2S,3R)-4-[hex-5-en-1-yl({[(1-phenylnon-8-en-1-yl)oxy]carbonyl})amino]-3-hydroxy-1-phenylbutan-2-yl]carbamate]: 444 nM; `C=CCCCCCCCCOC(=O)N(C[C@@H](O)[C@H](Cc1ccccc1)NC(=O)O[C@H]1CO[C@H]2OCC[C@H]21)C(C)CC=C` (stereo partly drawn) [dec-9-en-1-yl N-[(2R,3S)-3-({[(3R,3aS,6aR)-hexahydrofuro[2,3-b]furan-3-yloxy]carbonyl}amino)-2-hydroxy-4-phenylbutyl]-N-(pent-4-en-2-yl)carbamate]: over 1000 nM. `O=C(N[C@@H](Cc1ccccc1)[C@H](O)CN1CCCCCCCCCCCOC1=O)O[C@H]1CO[C@H]2OCC[C@H]21` [(3R,3aS,6aR)-hexahydrofuro[2,3-b]furan-3-yl N-[(2S,3R)-3-hydroxy-4-(2-oxo-1-oxa-3-azacyclotetradecan-3-yl)-1-phenylbutan-2-yl]carbamate] gave a Ki of 80 nM. Compound `CC(C)(C)NC(=O)[C@@H]1C[C@@H]2CCCC[C@@H]2CN1C[C@@H](O)[C@H](Cc1ccccc1)NC(=O)O[C@H]1CO[C@H]2OCC[C@H]21` [(3R,3aS,6aR)-hexahydrofuro[2,3-b]furan-3-yl N-[(2S,3R)-4-[(3S,4aS,8aS)-3-(tert-butylcarbamoyl)-decahydroisoquinolin-2-yl]-3-hydroxy-1-phenylbutan-2-yl]carbamate] returned a Ki of 2 nM. Consider `O=C(N[C@@H](Cc1ccccc1)[C@H](O)CN1CCCCCCCCCCC(c2ccccc2)OC1=O)O[C@H]1CO[C@H]2OCC[C@H]21` (stereo partly drawn) [(3R,3aS,6aR)-hexahydrofuro[2,3-b]furan-3-yl N-[(2S,3R)-3-hydroxy-4-(2-oxo-14-phenyl-1-oxa-3-azacyclotetradecan-3-yl)-1-phenylbutan-2-yl]carbamate], for which the affinity, expressed as Ki, was 189 nM. For the compound `CC1CCCCCCCCCCOC(=O)N(C[C@@H](O)[C@H](Cc2ccccc2)NC(=O)O[C@H]2CO[C@H]3OCC[C@H]32)C1` (stereo partly drawn) [(3R,3aS,6aR)-hexahydrofuro[2,3-b]furan-3-yl N-[(2S,3R)-3-hydroxy-4-(5-methyl-2-oxo-1-oxa-3-azacyclopentadecan-3-yl)-1-phenylbutan-2-yl]carbamate], the affinity, expressed as Ki, was 6.1 nM. `C=CCCCCCCCC(OC(=O)N(CC=C)C[C@@H](O)[C@H](Cc1ccccc1)NC(=O)O[C@H]1CO[C@H]2OCC[C@H]21)c1ccccc1` (stereo partly drawn) [(3R,3aS,6aR)-hexahydrofuro[2,3-b]furan-3-yl N-[(2S,3R)-3-hydroxy-1-phenyl-4-({[(1-phenyldec-9-en-1-yl)oxy]carbonyl}(prop-2-en-1-yl)amino)butan-2-yl]carbamate] registered an inhibition constant (Ki) of over 1000 nM. For the compound `O=C(N[C@@H](Cc1ccccc1)[C@H](O)CN1CCCCCCCCC=CCCOC1=O)O[C@H]1CO[C@H]2OCC[C@H]21` [(3R,3aS,6aR)-hexahydrofuro[2,3-b]furan-3-yl N-[(2S,3R)-3-hydroxy-4-(2-oxo-1-oxa-3-azacyclopentadec-12-en-3-yl)-1-phenylbutan-2-yl]carbamate], the Ki is 88 nM. With `C=CCCCCCCCCN(C[C@@H](O)[C@H](Cc1ccccc1)NC(=O)O[C@H]1CO[C@H]2OCC[C@H]21)C(=O)OC(CC=C)c1ccccc1` (stereo partly drawn) [(3R,3aS,6aR)-hexahydrofuro[2,3-b]furan-3-yl N-[(2S,3R)-4-[dec-9-en-1-yl({[(1-phenylbut-3-en-1-yl)oxy]carbonyl})amino]-3-hydroxy-1-phenylbutan-2-yl]carbamate] the figure was over 1000 nM; with `C=CCCCCCCCCOC(=O)N(CC=C)C[C@@H](O)[C@H](Cc1ccccc1)NC(=O)O[C@H]1CO[C@H]2OCC[C@H]21` [dec-9-en-1-yl N-[(2R,3S)-3-({[(3R,3aS,6aR)-hexahydrofuro[2,3-b]furan-3-yloxy]carbonyl}amino)-2-hydroxy-4-phenylbutyl]-N-(prop-2-en-1-yl)carbamate], over 1000 nM. Next, `O=C(N[C@@H](Cc1ccccc1)[C@H](O)CN1C/C=C\CCCCCCCC(c2ccccc2)OC1=O)O[C@H]1CO[C@H]2OCC[C@H]21` (stereo partly drawn) [(3R,3aS,6aR)-hexahydrofuro[2,3-b]furan-3-yl N-[(2S,3R)-3-hydroxy-4-[(5Z)-2-oxo-14-phenyl-1-oxa-3-azacyclotetradec-5-en-3-yl]-1-phenylbutan-2-yl]carbamate]: 229 nM.

`O=C(N[C@@H](Cc1ccccc1)[C@H](O)CN1CCCCC=CCCCCCCC(c2ccccc2)OC1=O)O[C@H]1CO[C@H]2OCC[C@H]21` (stereo partly drawn) [(3R,3aS,6aR)-hexahydrofuro[2,3-b]furan-3-yl N-[(2S,3R)-3-hydroxy-4-(2-oxo-16-phenyl-1-oxa-3-azacyclohexadec-8-en-3-yl)-1-phenylbutan-2-yl]carbamate] came in with a Ki of 162 nM. On to `O=C(N[C@@H](Cc1ccccc1)[C@H](O)CN1CCCCCCCCCCCC(c2ccccc2)OC1=O)O[C@H]1CO[C@H]2OCC[C@H]21` (stereo partly drawn) [(3R,3aS,6aR)-hexahydrofuro[2,3-b]furan-3-yl N-[(2S,3R)-3-hydroxy-4-(2-oxo-15-phenyl-1-oxa-3-azacyclopentadecan-3-yl)-1-phenylbutan-2-yl]carbamate], for which the Ki was 357 nM. `CC1CC=CCCCCCCCOC(=O)N(C[C@@H](O)[C@H](Cc2ccccc2)NC(=O)O[C@H]2CO[C@H]3OCC[C@H]32)C1` (stereo partly drawn) [(3R,3aS,6aR)-hexahydrofuro[2,3-b]furan-3-yl N-[(2S,3R)-3-hydroxy-4-(5-methyl-2-oxo-1-oxa-3-azacyclopentadec-7-en-3-yl)-1-phenylbutan-2-yl]carbamate]: the inhibition constant Ki came out at 11 nM. `C=CCCCCCCCOC(=O)N(CC(C)CC=C)C[C@@H](O)[C@H](Cc1ccccc1)NC(=O)O[C@H]1CO[C@H]2OCC[C@H]21` (stereo partly drawn) [non-8-en-1-yl N-[(2R,3S)-3-({[(3R,3aS,6aR)-hexahydrofuro[2,3-b]furan-3-yloxy]carbonyl}amino)-2-hydroxy-4-phenylbutyl]-N-(2-methylpent-4-en-1-yl)carbamate] returned a Ki of over 1000 nM. In turn, `O=C(N[C@@H](Cc1ccccc1)[C@H](O)CN1CCCCCCCCCCCCC(c2ccccc2)OC1=O)O[C@H]1CO[C@H]2OCC[C@H]21` (stereo partly drawn) [(3R,3aS,6aR)-hexahydrofuro[2,3-b]furan-3-yl N-[(2S,3R)-3-hydroxy-4-(2-oxo-16-phenyl-1-oxa-3-azacyclohexadecan-3-yl)-1-phenylbutan-2-yl]carbamate] yielded a Ki of 268 nM.

As for `CC1CC=CCCCCCCCCOC(=O)N1C[C@@H](O)[C@H](Cc1ccccc1)NC(=O)O[C@H]1CO[C@H]2OCC[C@H]21` (stereo partly drawn) [(3R,3aS,6aR)-hexahydrofuro[2,3-b]furan-3-yl N-[(2S,3R)-3-hydroxy-4-(4-methyl-2-oxo-1-oxa-3-azacyclopentadec-6-en-3-yl)-1-phenylbutan-2-yl]carbamate], affinity was put at a Ki of 53 nM. Next, `O=C(N[C@@H](Cc1ccccc1)[C@H](O)CN1CCCCCCCCCCCCOC1=O)O[C@H]1CO[C@H]2OCC[C@H]21` [(3R,3aS,6aR)-hexahydrofuro[2,3-b]furan-3-yl N-[(2S,3R)-3-hydroxy-4-(2-oxo-1-oxa-3-azacyclopentadecan-3-yl)-1-phenylbutan-2-yl]carbamate]: 14 nM.

One may read the Ki as the dissociation constant of the complex between target and ligand, obtained from inhibition or displacement. Higher therefore signals a looser hold on the target.
